The values below come from US20250186408A1, “TREATMENT OF PHARMACORESISTANT EPILEPSY” (Katholieke Universiteit Leuven, priority 2021, published 2025).

One may read the IC50 as the concentration needed to halve the response being measured. The term EC50 denotes the midpoint of the concentration-response curve.

In one data set the target is T1, PDE4D2 (Homo sapiens, UniProt Q08499).
T1 construct: purchased Signal Chem
As to the kind of experiment: Enzymatic PDE4D2 Inhibitor. It is filed as biochemical. To be noted: for IC50: read-out: RC50, result type IC50; for Emax: read-out: Max response. How it is done:
Enzyme preparations were sourced from various vendors-AChE (R&D Systems), COX1 and COX2 (BPS Bioscience), MAOA (Sigma), PDE3A and PDE4D2 (Signal Chem). AChE: enzyme and test compound were pre-incubated for 15 min at RT before substrate addition. Acetylthiocholine and DTNB were added and incubated at RT for 30 min. Signal was detected by measuring absorbance at 405 nm. COX1 and COX2: enzyme stocks were diluted in assay buffer (40 mM Tris-HCl, 1×PBS, 0.5 mM Phenol, 0.01% Tween 20 and 10 nM Hematin) and allowed to equilibrate with compounds at RT for 30 min (binding incubation). Arachidonic acid (1.7 μM) and Ampliflu Red (2.5 μM) were prepared and dispended into a reaction plate. Plates were read immediately on a fluorimeter with the emission detection at 590 nm and excitation wavelength 544 nm. MAOA: enzyme and test compound were pre-incubated for 15 min at 37° C. before substrate addition. The reaction was initiated by addition of kynuramine and incubated at 37° C. for 30 min. The reaction was terminated by addition of NaOH. The amount of 4-hydroquinoline formed was determined through spectrofluorometric readout with the emission detection at 380 nm and excitation wavelength 310 nm. PDE3A and PDE4D2: enzyme and test compound were pre-incubated for 15 min at RT before substrate addition. cAMP substrate (at a concentration equal to EC80) was added and incubated at RT for 30 min. Enzyme reaction was terminated by addition of 9 mM IBMX. Signal was detected using the HitHunter® cAMP detection kit. Microplates were transferred to a PerkinElmer Envision™ instrument and read out as described for each assay. […] For enzyme activity assays, percentage inhibition was calculated using the following equation: […]

Another data set deals with KvLQT1/minK (Homo sapiens, UniProt P51787). As to the kind of experiment: Ion Channel KvLQT1/minK Opener. It is filed as cell-based. To be noted: for Emax: read-out: Max response.
In a further data set the target is T2, CCKAR (Homo sapiens, UniProt P32238).
T2 sequence (P32238 1-428): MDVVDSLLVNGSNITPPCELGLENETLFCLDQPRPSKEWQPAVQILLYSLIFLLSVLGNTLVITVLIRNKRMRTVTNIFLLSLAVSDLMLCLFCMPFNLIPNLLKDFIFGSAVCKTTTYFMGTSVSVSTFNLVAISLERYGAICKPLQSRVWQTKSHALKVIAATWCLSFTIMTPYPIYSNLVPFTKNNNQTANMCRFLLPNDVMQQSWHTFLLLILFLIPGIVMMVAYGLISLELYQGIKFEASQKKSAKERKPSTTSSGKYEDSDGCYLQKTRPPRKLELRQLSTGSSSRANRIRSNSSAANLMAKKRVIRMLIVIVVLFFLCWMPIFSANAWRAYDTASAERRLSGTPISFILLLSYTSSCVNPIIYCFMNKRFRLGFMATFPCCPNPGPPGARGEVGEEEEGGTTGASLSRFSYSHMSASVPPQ
As to the kind of experiment: Calcium Flux CCKAR Agonist. It is filed as cell-based. As to conditions: for EC50: read-out: RC50, result type EC50; for Emax: read-out: Max response. How it is done:
(≤0.2% DMSO concentration). Assays were performed in 1× dye loading buffer consisting of 1× Dye (DiscoverX, Calcium No Wash^PLUS kit, Catalog No. 90-0091), 1× Additive A and 2.5 mM Probenecid in HBSS/20 mM HEPES. Probenecid was prepared fresh. Prior to testing, media was aspirated from cells and replaced with 25 μL dye loading buffer. Cells were incubated for 45 min at 37° C. and then 20 min at RT. For agonist determination, 25 μL of 2× compound in HBSS/20 mM HEPES was added using a FLIPR Tetra (MDS). […] 25 μL of 2× sample was added and cells were incubated for 30 min at RT in the dark to equilibrate plate temperature. After incubation, antagonist determination was initiated by addition of 25 μL of 1× compound with 3×EC80 agonist using FLIPR. For both agonist and antagonist formats, activity was measure on a FLIPR Tetra (MDS). Calcium mobilization was monitored for 2 min with a 5 sec baseline read.
FLIPR read—Area under the curve, was calculated for the entire 2 min read.
On the technique in general: A change in cytosolic calcium serves as a functional read-out for many receptors and channels.

Another data set concerns the target NAV1.5 (Homo sapiens, UniProt Q14524). The data set is described as follows: Ion Channel NAV1.5 Blocker. It is filed as cell-based. As to conditions: for Emax at 30 min: Ion Channel NAV1.5 Blocker, read-out: Max response.
For a further data set, the target named is CNR2 (Homo sapiens, UniProt P34972). The data set is described as follows: cAMP CNR2 Antagonist. As to conditions: for Emax: read-out: Max response.
The target in the next data set is T3, CHRM1 (Homo sapiens, UniProt P11229).
T3 sequence (P11229 1-460): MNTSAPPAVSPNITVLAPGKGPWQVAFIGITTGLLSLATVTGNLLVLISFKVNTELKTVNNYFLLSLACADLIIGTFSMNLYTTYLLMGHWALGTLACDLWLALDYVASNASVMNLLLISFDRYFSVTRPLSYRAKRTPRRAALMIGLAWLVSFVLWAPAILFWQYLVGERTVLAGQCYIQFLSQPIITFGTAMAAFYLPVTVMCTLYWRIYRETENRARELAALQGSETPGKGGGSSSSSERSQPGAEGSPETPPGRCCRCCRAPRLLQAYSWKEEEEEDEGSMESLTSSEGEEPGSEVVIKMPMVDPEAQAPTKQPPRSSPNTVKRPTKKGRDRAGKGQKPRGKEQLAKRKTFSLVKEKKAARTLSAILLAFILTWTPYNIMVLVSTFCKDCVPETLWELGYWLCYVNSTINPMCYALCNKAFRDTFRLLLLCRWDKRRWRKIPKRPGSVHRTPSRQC
As to the kind of experiment: Calcium Flux CHRM1 Agonist. As to conditions: for Emax: read-out: Max response.

Another data set has as its target T4, ADRA1A (Homo sapiens, UniProt P35348).
T4 sequence (P35348 1-466): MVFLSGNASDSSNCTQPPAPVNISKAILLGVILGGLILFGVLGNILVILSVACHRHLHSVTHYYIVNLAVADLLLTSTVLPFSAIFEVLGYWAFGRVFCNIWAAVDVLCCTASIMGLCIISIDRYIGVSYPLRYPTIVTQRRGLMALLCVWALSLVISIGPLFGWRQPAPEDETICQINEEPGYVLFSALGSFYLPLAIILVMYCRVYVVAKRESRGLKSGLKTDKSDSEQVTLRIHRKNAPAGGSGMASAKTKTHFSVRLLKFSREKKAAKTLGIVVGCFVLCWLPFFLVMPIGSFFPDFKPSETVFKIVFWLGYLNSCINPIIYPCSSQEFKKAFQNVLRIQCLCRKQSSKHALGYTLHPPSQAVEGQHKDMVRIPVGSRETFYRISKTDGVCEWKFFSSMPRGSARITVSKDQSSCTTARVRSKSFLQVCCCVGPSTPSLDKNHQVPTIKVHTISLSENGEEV
The data set is described as follows: Calcium Flux ADRA1A Antagonist. To be noted: for Emax: read-out: Max response.

Where two headings read alike, the source gives them in different places.

CNR2, sequence (P34972 whole entry): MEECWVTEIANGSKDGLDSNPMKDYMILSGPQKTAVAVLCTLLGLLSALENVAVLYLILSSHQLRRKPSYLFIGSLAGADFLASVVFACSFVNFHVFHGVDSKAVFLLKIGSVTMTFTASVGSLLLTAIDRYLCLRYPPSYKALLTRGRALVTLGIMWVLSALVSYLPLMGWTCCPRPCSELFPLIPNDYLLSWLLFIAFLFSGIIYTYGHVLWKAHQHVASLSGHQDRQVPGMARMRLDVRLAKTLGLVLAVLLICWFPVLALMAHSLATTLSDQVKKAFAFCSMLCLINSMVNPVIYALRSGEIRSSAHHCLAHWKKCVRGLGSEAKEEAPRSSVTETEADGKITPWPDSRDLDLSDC
T1 sequence (Q08499 303-809 limits assumed): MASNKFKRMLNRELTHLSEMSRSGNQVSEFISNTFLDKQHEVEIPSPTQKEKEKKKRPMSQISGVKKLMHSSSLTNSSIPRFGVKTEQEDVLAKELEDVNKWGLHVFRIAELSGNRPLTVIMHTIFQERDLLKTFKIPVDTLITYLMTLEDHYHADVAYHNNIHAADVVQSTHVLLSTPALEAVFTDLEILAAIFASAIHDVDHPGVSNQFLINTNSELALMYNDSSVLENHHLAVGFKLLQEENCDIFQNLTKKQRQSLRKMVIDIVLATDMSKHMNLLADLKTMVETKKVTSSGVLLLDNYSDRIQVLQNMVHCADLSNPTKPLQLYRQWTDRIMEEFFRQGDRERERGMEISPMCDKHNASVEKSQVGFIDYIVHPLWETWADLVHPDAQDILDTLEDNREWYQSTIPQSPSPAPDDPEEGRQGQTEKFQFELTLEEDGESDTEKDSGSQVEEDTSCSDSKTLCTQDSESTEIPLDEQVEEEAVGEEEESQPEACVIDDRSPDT
NAV1.5, sequence (Q14524 whole entry): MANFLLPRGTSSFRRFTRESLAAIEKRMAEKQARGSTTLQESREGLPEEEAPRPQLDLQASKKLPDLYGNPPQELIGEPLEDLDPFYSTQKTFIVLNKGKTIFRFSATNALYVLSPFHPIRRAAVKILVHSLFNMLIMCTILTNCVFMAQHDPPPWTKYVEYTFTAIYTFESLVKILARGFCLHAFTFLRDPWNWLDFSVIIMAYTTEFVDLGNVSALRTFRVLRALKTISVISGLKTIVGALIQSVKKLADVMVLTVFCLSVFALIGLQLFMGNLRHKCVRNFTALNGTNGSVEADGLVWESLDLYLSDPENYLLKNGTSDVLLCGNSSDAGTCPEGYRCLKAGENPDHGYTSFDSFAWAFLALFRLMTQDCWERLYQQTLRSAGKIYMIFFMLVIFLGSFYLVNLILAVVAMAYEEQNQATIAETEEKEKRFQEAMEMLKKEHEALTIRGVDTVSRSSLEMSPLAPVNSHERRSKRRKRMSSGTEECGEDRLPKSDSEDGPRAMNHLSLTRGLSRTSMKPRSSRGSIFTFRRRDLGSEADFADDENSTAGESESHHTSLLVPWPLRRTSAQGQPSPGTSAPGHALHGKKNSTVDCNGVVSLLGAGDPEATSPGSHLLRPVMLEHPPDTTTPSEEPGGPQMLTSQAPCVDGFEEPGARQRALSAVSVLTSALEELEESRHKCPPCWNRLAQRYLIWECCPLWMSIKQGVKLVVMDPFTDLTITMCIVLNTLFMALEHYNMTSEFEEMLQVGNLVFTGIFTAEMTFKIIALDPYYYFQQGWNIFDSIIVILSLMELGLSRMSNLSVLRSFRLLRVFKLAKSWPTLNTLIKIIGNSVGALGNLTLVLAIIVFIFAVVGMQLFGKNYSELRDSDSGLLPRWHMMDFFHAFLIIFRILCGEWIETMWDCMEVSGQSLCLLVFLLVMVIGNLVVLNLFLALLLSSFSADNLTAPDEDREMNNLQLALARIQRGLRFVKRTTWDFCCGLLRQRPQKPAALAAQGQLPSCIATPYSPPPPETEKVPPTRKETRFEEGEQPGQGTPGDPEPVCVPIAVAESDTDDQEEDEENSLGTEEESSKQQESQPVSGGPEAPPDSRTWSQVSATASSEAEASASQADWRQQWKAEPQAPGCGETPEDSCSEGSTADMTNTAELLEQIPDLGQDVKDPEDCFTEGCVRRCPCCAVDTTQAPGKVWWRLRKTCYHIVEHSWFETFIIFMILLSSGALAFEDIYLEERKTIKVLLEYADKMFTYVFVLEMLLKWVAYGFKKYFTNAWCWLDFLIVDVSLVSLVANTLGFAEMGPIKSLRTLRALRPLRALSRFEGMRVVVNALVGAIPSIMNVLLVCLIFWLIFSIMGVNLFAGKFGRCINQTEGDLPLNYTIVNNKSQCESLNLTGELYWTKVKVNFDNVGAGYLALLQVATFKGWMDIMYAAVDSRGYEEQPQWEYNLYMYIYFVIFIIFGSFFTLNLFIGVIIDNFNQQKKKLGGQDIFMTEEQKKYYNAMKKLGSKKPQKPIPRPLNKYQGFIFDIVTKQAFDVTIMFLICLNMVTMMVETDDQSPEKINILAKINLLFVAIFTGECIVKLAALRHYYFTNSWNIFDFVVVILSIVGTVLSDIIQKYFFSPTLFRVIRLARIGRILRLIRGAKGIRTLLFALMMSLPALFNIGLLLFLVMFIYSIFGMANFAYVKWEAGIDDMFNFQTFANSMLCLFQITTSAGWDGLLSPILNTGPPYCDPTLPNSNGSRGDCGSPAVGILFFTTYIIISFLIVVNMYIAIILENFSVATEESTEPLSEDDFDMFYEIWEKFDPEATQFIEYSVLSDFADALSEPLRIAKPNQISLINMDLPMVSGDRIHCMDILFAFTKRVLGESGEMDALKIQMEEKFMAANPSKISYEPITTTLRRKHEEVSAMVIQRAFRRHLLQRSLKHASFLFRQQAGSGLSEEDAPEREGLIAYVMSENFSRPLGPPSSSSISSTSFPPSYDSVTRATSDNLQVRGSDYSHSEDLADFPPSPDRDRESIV
Protocol for ADRA1A: (§1) In vitro pharmacological profiling of compounds was done against 78 functional assays for 47 common off-targets (30) by Eurofins DiscoverX Corporation (Fremont, CA, USA) using their SAFETYscan E/IC50 ELECT service (Cat Ref 87-1003DR, Safety47 Panel Dose Response). […] Compounds were tested in a range of 10 concentrations, following a 3-fold serial dilution, starting from 10 μM. The assays were performed utilizing the PathHunter enzyme fragment complementation (EFC) technology, FLIPR®-based cellular screening assays, and KINOMEscan kinase binding assays.
(§2) Prior to testing, cells (10,000 cells/well) were expanded from freezer stocks and seeded into a total volume of 50 μL into black walled, clear-bottom, Poly-D-lysine coated 384-well microplates and incubated at 37° C. […] Assays were performed in 1× dye loading buffer consisting of 1× Dye (DiscoverX, Calcium No Wash^PLUS kit, Catalog No. 90-0091), 1× Additive A and 2.5 mM Probenecid in HBSS/20 mM HEPES. Probenecid was prepared fresh. Prior to testing, media was aspirated from cells and replaced with 25 μL dye loading buffer. Cells were incubated for 45 min at 37° C. and then 20 min at RT. For agonist determination, 25 μL of 2× compound in HBSS/20 mM HEPES was added using a FLIPR Tetra (MDS). For antagonist determination, cells were pre-incubated with sample followed by agonist challenge at the EC80 concentration. 25 μL of 2× sample was added and cells were incubated for 30 min at RT in the dark to equilibrate plate temperature. After incubation, antagonist determination was initiated by addition of 25 μL of 1× compound with 3×EC80 agonist using FLIPR. For both agonist and antagonist formats, activity was measure on a FLIPR Tetra (MDS). Calcium mobilization was monitored for 2 min with a 5 sec baseline read.
(§3) FLIPR read—Area under the curve, was calculated for the entire 2 min read. Compound activity was analysed using CBIS data analysis suite (ChemInnovation, CA).
Protocol for CHRM1: as §1, §2, §3
Protocol for CNR2: In vitro pharmacological profiling of compounds was done against 78 functional assays for 47 common off-targets (30) by Eurofins DiscoverX Corporation (Fremont, CA, USA) using their SAFETYscan E/IC50 ELECT service (Cat Ref 87-1003DR, Safety47 Panel Dose Response). […] Compounds were tested in a range of 10 concentrations, following a 3-fold serial dilution, starting from 10 μM.
cAMP Hunter cell lines were expanded from freezer stocks. Prior to testing, cells were seeded in a total volume of 20 μL into white walled 384-well microplates and incubated at 37° C. cAMP modulation was determined using the DiscoverX HitHunter cAMP XS+ assay. For Gs agonist determination, cells were incubated with sample to induce response. For Gi agonist determination, cells were incubated with sample in the presence of EC80 forskolin to induce response. For both conditions, media was aspirated from cells and replaced with 15 μL 2:1 HBSS/10 mM HEPES:cAMP XS+ Ab reagent. Intermediate dilution of sample stocks was performed to generate 4× sample in assay buffer (containing 4×EC80 forskolin in the case of antagonist determination). 5 μL of 4× sample was added to cells and incubated at 37° C. or room temperature (RT) for 30 or 60 min. Final assay vehicle concentration was 1%. For antagonist determination, cells were pre-incubated with sample followed by agonist challenge at the EC80 concentration. Media was aspirated from cells and replaced with 10 μL 1:1 HBSS/HEPES:cAMP XS+ Ab reagent. 5 μL of 4× compound was added to the cells and incubated at 37° C. or RT for 30 min. 5 μL of 4×EC80 agonist was added to the cells and incubated at 37° C. or RT for 30 or 60 min. For Gi coupled GPCRs, EC80 forskolin was included. […] Microplates were read following signal generation with a PerkinElmer Envision™ instrument for chemiluminescent signal detection. Compound activity was analyzed using CBIS data analysis suite (ChemInnovation, CA). For Gs agonist mode assays, percentage activity was calculated using the following equation:

Take `CC(C)(C)c1ccc(C#CC(O)c2ccccc2)cc1` (racemic) [Compound 3.3, rac-3-(4-(tert-butyl)phenyl)-1-phenylprop-2-yn-1-ol]: the IC50 at PDE4D2 (Enzymatic PDE4D2 Inhibitor), on NAV1.5, at CNR2 and on ADRA1A was above 10 µM in each case. Also, the Emax on PDE4D2 was 0%; on KvLQT1/minK it was 0%; at CCKAR, 0.2%; at CNR2, 38.3%; on CHRM1 it was 1.8%; at ADRA1A, 0%. Further, the EC50 on KvLQT1/minK, on CCKAR (Calcium Flux CCKAR Agonist) and at CHRM1 was above 10 µM in each case. Also, at NAV1.5, the Emax at 30 min was 59.9%.

On to `Clc1cccc(C#Cc2n[nH]c3ncccc23)c1` [Compound 10.1, 3-((3-chlorophenyl)ethynyl)-1H-pyrazolo[3,4-b]pyridine], for which the Emax was found to be 2.7% on PDE4D2 (Enzymatic PDE4D2 Inhibitor); 2% on KvLQT1/minK (Ion Channel KvLQT1/minK Opener); 0.3% on CCKAR (Calcium Flux CCKAR Agonist); 0% at CNR2; 1.8% on CHRM1; 0% on ADRA1A. Besides, the IC50 on PDE4D2 (Enzymatic PDE4D2 Inhibitor), against NAV1.5, against CNR2 and at ADRA1A was above 10 µM each time. The concentration for a half-maximal effect (EC50) at KvLQT1/minK (Ion Channel KvLQT1/minK Opener, read-out: RC50, result type EC50) was above 10 µM; at CCKAR (Calcium Flux CCKAR Agonist), above 10 µM; at CHRM1, above 10 µM. The Emax at 30 min on NAV1.5 came out at 21.5%.
